Measured values taken from patent US10004703B2, “Treatment of alzheimer's disease using compounds that reduce the activity of non-selective CA++ activated ATP-sensitive cation channels regulated by SUR1 channels” (Biogen Chesapeake LLC, priority 2006, dated 2018).

Legend:
[1] = Exemplary case: type 2 diabetic patient with AD given daily glibenclamide, metformin ceased; type: in vivo, human; details: 10 mg per day
From the text: The following exemplary descriptions illustrate ways to implement the methods and treatments disclosed herein.
A type 2 diabetic […] presents to their family physician with complaints of forgetfulness and increasing confusion. They are being treated with metformin and diet controls for their Type 2 diabetes. The patient is diagnosed with AD upon referral to a geriatrician and upon clinical, laboratory and imaging investigations.

[2] = Exemplary case: AD patient given daily glibenclamide by monthly depot intramuscular injection, neurological testing; type: in vivo, human; details: person with AD; 1.0 mg per day via monthly depot intramuscular injection
From the text: The following exemplary descriptions illustrate ways to implement the methods and treatments disclosed herein. […] A diagnosis of AD is made as other causes are ruled out. […] Depot injection is chosen in order to optimize patient compliance.

With COc1ccc(Cl)cc1C(=O)NCCc1ccc(S(=O)(=O)NC(=O)NC2CCCCC2)cc1 [glibenclamide, 5-chloro-N-[2-[4-(cyclohexylcarbamoylsulfamoyl)phenyl]ethyl]-2-methoxy-benzamide] the “Blood glucose measurements and HbA1C levels” value [1] was “stable blood glucose measurements and HbA1C levels”, the Episodes of forgetfulness [1] was “episodes of forgetfulness are waning” and the “Neurological testing: AD symptoms” value [2] was “stabilization of symptoms”.
